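Protocol summary: plate cells (96-well), add compound at 5 concentrations, incubate 48 h, interpolate endpoints linearly. The concentration for 50% growth inhibition is given as GI50. TGI denotes the concentration required for complete inhibition of growth.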
Legend:
Assay in all cases: NCI-60 cell line screen, 48 h
786-0 renal = tested on: 786-0 renal
A498 renal = tested on: A498 renal
A549 NSCLC = tested on: A549 NSCLC
ACHN renal = tested on: ACHN renal
BT-549 breast = tested on: BT-549 breast
CAKI-1 renal = tested on: CAKI-1 renal
CCRF-CEM leukemia = tested on: CCRF-CEM leukemia
COLO 205 colon = tested on: COLO 205 colon
DU-145 prostate = tested on: DU-145 prostate
HCC-2998 colon = tested on: HCC-2998 colon
HCT-116 colon = tested on: HCT-116 colon
HCT-15 colon = tested on: HCT-15 colon
HL-60(TB) leukemia = tested on: HL-60(TB) leukemia
HOP-62 NSCLC = tested on: HOP-62 NSCLC
HOP-92 NSCLC = tested on: HOP-92 NSCLC
HT29 colon = tested on: HT29 colon
IGROV1 ovarian = tested on: IGROV1 ovarian
K-562 leukemia = tested on: K-562 leukemia
KM12 colon = tested on: KM12 colon
LOX IMVI melanoma = tested on: LOX IMVI melanoma
M14 melanoma = tested on: M14 melanoma
MALME-3M melanoma = tested on: MALME-3M melanoma
MCF7 breast = tested on: MCF7 breast
MDA-MB-231 breast = tested on: MDA-MB-231 breast
MDA-MB-435 = tested on: MDA-MB-435
MOLT-4 leukemia = tested on: MOLT-4 leukemia
NCI-H226 lung = tested on: NCI-H226 lung
NCI-H23 lung = tested on: NCI-H23 lung
NCI-H460 lung = tested on: NCI-H460 lung
NCI-H522 lung = tested on: NCI-H522 lung
NCI/ADR-RES ovarian = tested on: NCI/ADR-RES ovarian
OVCAR-3 ovarian = tested on: OVCAR-3 ovarian
OVCAR-4 ovarian = tested on: OVCAR-4 ovarian
OVCAR-5 ovarian = tested on: OVCAR-5 ovarian
OVCAR-8 ovarian = tested on: OVCAR-8 ovarian
PC-3 prostate = tested on: PC-3 prostate
RPMI-8226 leukemia = tested on: RPMI-8226 leukemia
RXF 393 renal = tested on: RXF 393 renal
SF-268 CNS = tested on: SF-268 CNS
SF-295 CNS = tested on: SF-295 CNS
SF-539 CNS = tested on: SF-539 CNS
SK-MEL-2 melanoma = tested on: SK-MEL-2 melanoma
SK-MEL-28 melanoma = tested on: SK-MEL-28 melanoma
SK-MEL-5 melanoma = tested on: SK-MEL-5 melanoma
SK-OV-3 ovarian = tested on: SK-OV-3 ovarian
SN12C renal = tested on: SN12C renal
SNB-19 CNS = tested on: SNB-19 CNS
SNB-75 CNS = tested on: SNB-75 CNS
SR leukemia = tested on: SR leukemia
SW-620 colon = tested on: SW-620 colon
T-47D breast = tested on: T-47D breast
TK-10 renal = tested on: TK-10 renal
U251 CNS = tested on: U251 CNS
UACC-62 melanoma = tested on: UACC-62 melanoma
UO-31 renal = tested on: UO-31 renal

Q: How did the GI50 (786-0 renal) turn out when `C=CC(C)c1cccc(C=O)c1O` (stereo not given) was run?
A: 97.1 µM

Q: What about the TGI (786-0 renal) of the same molecule?
A: > 100 µM

Q: And the GI50 (A498 renal)?
A: > 100 µM

Q: And the TGI (A498 renal)?
A: > 100 µM

Q: What about the GI50 (A549 NSCLC) of the same molecule?
A: > 100 µM

Q: And the TGI (A549 NSCLC)?
A: > 100 µM

Q: What about the GI50 (ACHN renal) of the same molecule?
A: 80.9 µM

Q: What about the TGI (ACHN renal) of the same molecule?
A: > 100 µM

Q: And the GI50 (BT-549 breast)?
A: 23.8 µM

Q: And the TGI (BT-549 breast)?
A: > 100 µM

Q: And the GI50 (CAKI-1 renal)?
A: 45 µM

Q: What about the TGI (CAKI-1 renal) of the same molecule?
A: > 100 µM

Q: And the GI50 (CCRF-CEM leukemia)?
A: 17.4 µM

Q: And the TGI (CCRF-CEM leukemia)?
A: > 100 µM

Q: What about the GI50 (COLO 205 colon) of the same molecule?
A: > 100 µM

Q: What about the TGI (COLO 205 colon) of the same molecule?
A: > 100 µM

Q: What about the GI50 (DU-145 prostate) of the same molecule?
A: 94.9 µM

Q: And the TGI (DU-145 prostate)?
A: > 100 µM

Q: What about the GI50 (HCC-2998 colon) of the same molecule?
A: > 100 µM

Q: And the TGI (HCC-2998 colon)?
A: > 100 µM

Q: What about the GI50 (HCT-116 colon) of the same molecule?
A: 18.1 µM

Q: And the TGI (HCT-116 colon)?
A: > 100 µM

Q: And the GI50 (HCT-15 colon)?
A: 22 µM

Q: What about the TGI (HCT-15 colon) of the same molecule?
A: > 100 µM

Q: And the GI50 (HL-60(TB) leukemia)?
A: 19.9 µM

Q: What about the TGI (HL-60(TB) leukemia) of the same molecule?
A: > 100 µM

Q: What about the GI50 (HOP-62 NSCLC) of the same molecule?
A: 49.3 µM

Q: And the TGI (HOP-62 NSCLC)?
A: > 100 µM

Q: And the GI50 (HOP-92 NSCLC)?
A: 4.93 µM

Q: And the TGI (HOP-92 NSCLC)?
A: 70.5 µM

Q: And the GI50 (HT29 colon)?
A: 37 µM

Q: What about the TGI (HT29 colon) of the same molecule?
A: > 100 µM

Q: And the GI50 (IGROV1 ovarian)?
A: 37 µM

Q: What about the TGI (IGROV1 ovarian) of the same molecule?
A: > 100 µM

Q: What about the GI50 (K-562 leukemia) of the same molecule?
A: 4.08 µM

Q: What about the TGI (K-562 leukemia) of the same molecule?
A: > 100 µM

Q: What about the GI50 (KM12 colon) of the same molecule?
A: 91.6 µM

Q: What about the TGI (KM12 colon) of the same molecule?
A: > 100 µM

Q: What about the GI50 (LOX IMVI melanoma) of the same molecule?
A: 30.7 µM

Q: What about the TGI (LOX IMVI melanoma) of the same molecule?
A: > 100 µM

Q: And the GI50 (M14 melanoma)?
A: 27.3 µM

Q: And the TGI (M14 melanoma)?
A: > 100 µM

Q: And the GI50 (MALME-3M melanoma)?
A: > 100 µM

Q: And the TGI (MALME-3M melanoma)?
A: > 100 µM

Q: What about the GI50 (MCF7 breast) of the same molecule?
A: 15.8 µM

Q: And the TGI (MCF7 breast)?
A: > 100 µM

Q: And the GI50 (MDA-MB-231 breast)?
A: 27.3 µM

Q: What about the TGI (MDA-MB-231 breast) of the same molecule?
A: > 100 µM

Q: And the GI50 (MDA-MB-435)?
A: 4.47 µM

Q: What about the TGI (MDA-MB-435) of the same molecule?
A: 41.7 µM

Q: And the GI50 (MOLT-4 leukemia)?
A: 8.45 µM

Q: And the TGI (MOLT-4 leukemia)?
A: > 100 µM

Q: And the GI50 (NCI-H226 lung)?
A: > 100 µM

Q: What about the TGI (NCI-H226 lung) of the same molecule?
A: > 100 µM

Q: And the GI50 (NCI-H23 lung)?
A: > 100 µM

Q: And the TGI (NCI-H23 lung)?
A: > 100 µM

Q: And the GI50 (NCI-H460 lung)?
A: > 100 µM

Q: And the TGI (NCI-H460 lung)?
A: > 100 µM

Q: What about the GI50 (NCI-H522 lung) of the same molecule?
A: > 100 µM

Q: And the TGI (NCI-H522 lung)?
A: > 100 µM

Q: And the GI50 (NCI/ADR-RES ovarian)?
A: 19.6 µM

Q: And the TGI (NCI/ADR-RES ovarian)?
A: > 100 µM

Q: What about the GI50 (OVCAR-3 ovarian) of the same molecule?
A: 58.3 µM

Q: What about the TGI (OVCAR-3 ovarian) of the same molecule?
A: > 100 µM

Q: And the GI50 (OVCAR-4 ovarian)?
A: 75.4 µM

Q: And the TGI (OVCAR-4 ovarian)?
A: > 100 µM

Q: And the GI50 (OVCAR-5 ovarian)?
A: > 100 µM

Q: What about the TGI (OVCAR-5 ovarian) of the same molecule?
A: > 100 µM

Q: What about the GI50 (OVCAR-8 ovarian) of the same molecule?
A: 73.6 µM

Q: What about the TGI (OVCAR-8 ovarian) of the same molecule?
A: > 100 µM

Q: And the GI50 (PC-3 prostate)?
A: 26.7 µM

Q: And the TGI (PC-3 prostate)?
A: > 100 µM

Q: What about the GI50 (RPMI-8226 leukemia) of the same molecule?
A: 19.7 µM

Q: And the TGI (RPMI-8226 leukemia)?
A: > 100 µM

Q: And the GI50 (RXF 393 renal)?
A: 37 µM

Q: What about the TGI (RXF 393 renal) of the same molecule?
A: > 100 µM

Q: And the GI50 (SF-268 CNS)?
A: 35.8 µM

Q: And the TGI (SF-268 CNS)?
A: > 100 µM

Q: What about the GI50 (SF-295 CNS) of the same molecule?
A: > 100 µM

Q: And the TGI (SF-295 CNS)?
A: > 100 µM

Q: What about the GI50 (SF-539 CNS) of the same molecule?
A: 45 µM

Q: What about the TGI (SF-539 CNS) of the same molecule?
A: > 100 µM

Q: What about the GI50 (SK-MEL-2 melanoma) of the same molecule?
A: 54 µM

Q: What about the TGI (SK-MEL-2 melanoma) of the same molecule?
A: > 100 µM

Q: What about the GI50 (SK-MEL-28 melanoma) of the same molecule?
A: > 100 µM

Q: What about the TGI (SK-MEL-28 melanoma) of the same molecule?
A: > 100 µM

Q: And the GI50 (SK-MEL-5 melanoma)?
A: 49.2 µM

Q: What about the TGI (SK-MEL-5 melanoma) of the same molecule?
A: > 100 µM

Q: What about the GI50 (SK-OV-3 ovarian) of the same molecule?
A: > 100 µM

Q: What about the TGI (SK-OV-3 ovarian) of the same molecule?
A: > 100 µM

Q: What about the GI50 (SN12C renal) of the same molecule?
A: 53.7 µM

Q: What about the TGI (SN12C renal) of the same molecule?
A: > 100 µM

Q: And the GI50 (SNB-19 CNS)?
A: 74.2 µM

Q: What about the TGI (SNB-19 CNS) of the same molecule?
A: > 100 µM

Q: And the GI50 (SNB-75 CNS)?
A: 35.1 µM

Q: What about the TGI (SNB-75 CNS) of the same molecule?
A: > 100 µM

Q: And the GI50 (SR leukemia)?
A: 3.82 µM

Q: And the TGI (SR leukemia)?
A: > 100 µM

Q: And the GI50 (SW-620 colon)?
A: 27.2 µM

Q: And the TGI (SW-620 colon)?
A: > 100 µM

Q: What about the GI50 (T-47D breast) of the same molecule?
A: 28.8 µM

Q: And the TGI (T-47D breast)?
A: > 100 µM

Q: What about the GI50 (TK-10 renal) of the same molecule?
A: 38.8 µM

Q: What about the TGI (TK-10 renal) of the same molecule?
A: > 100 µM

Q: And the GI50 (U251 CNS)?
A: 42.6 µM

Q: What about the TGI (U251 CNS) of the same molecule?
A: > 100 µM

Q: What about the GI50 (UACC-62 melanoma) of the same molecule?
A: 44.6 µM

Q: And the TGI (UACC-62 melanoma)?
A: > 100 µM

Q: And the GI50 (UO-31 renal)?
A: 57.9 µM

Q: What about the TGI (UO-31 renal) of the same molecule?
A: > 100 µM

Reference: PubChem BioAssay (NCI)
